Source: patent US7825217B2, “Polypeptides for bone mineralization” (University of Kansas Medical Center, priority 2006, dated 2010)
Non-standard residues stand in square brackets, D forms with d. Residues, ends and D or L forms follow the SMILES beside them. *: point of attachment. Biotin = O=C1N[C@H]2[C@H](CS[C@H]2CCCCC(=O)*)N1; pS = N[C@@H](COP(=O)(O)O)C(=O)O; Ahx = NCCCCCC(=O)O

Key:
PHEX = molecular target: T1, PHEX (Homo sapiens, UniProt P78562); assay: Surface plasmon resonance: PHEX analyte binding to immobilized biotinylated ASARM-PO4; conditions: immobilized biotinylated ASARM-PO4, soluble PHEX analyte, FIG. 4(A); read-out: kinetics of binding
T1 sequence (P78562 46-749 limits assumed): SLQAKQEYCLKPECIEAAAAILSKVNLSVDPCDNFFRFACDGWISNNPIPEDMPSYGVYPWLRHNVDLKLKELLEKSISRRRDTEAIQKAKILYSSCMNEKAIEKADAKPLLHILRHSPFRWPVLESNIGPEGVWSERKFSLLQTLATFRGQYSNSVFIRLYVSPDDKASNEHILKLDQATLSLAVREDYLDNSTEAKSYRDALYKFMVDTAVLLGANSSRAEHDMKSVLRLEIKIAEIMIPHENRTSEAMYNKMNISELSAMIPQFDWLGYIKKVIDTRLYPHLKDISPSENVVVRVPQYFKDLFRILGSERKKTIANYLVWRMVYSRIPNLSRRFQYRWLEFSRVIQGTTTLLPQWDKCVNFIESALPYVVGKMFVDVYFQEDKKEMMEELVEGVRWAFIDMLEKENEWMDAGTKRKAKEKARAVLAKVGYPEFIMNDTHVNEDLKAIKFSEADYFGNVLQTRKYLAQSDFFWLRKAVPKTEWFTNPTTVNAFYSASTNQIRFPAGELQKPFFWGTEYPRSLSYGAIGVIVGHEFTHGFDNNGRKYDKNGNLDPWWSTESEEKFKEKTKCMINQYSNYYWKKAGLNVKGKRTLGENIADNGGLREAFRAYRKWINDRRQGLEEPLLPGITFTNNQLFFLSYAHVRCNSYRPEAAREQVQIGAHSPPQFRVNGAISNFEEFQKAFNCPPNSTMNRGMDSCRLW
Procedure: A Biacore 3000 SPR instrument in conjunction with CM5 research grade chips was used to conduct the surface Plasmon Resonance (SPR) experiments (Biacore, Piscataway, N.J.) as previously described (Rowe et al., Bone 36:33-46 (2005)). The experiments were performed at 25° C. using Biacore buffer (10 mM HEPES pH 7.4, 150 mM NaCl, 0.005% surfactant P20) supplemented with 2 mM ZnCl2 (HBS-P-Zn) or without ZnCl2 (HBS-P) as indicated. Samples were injected at a flow rate of 5 ul/min. The surfaces of research grade CM5 chips were activated by a 6-min. injection of a solution containing 0.2 M N-ethyl-N9-(dimethylaminopropyl) carbodiimide and 0.05 M N-hydroxy-succinimide. Neutravidin (Pierce) was then immobilized on the same chip (ligands) in all four flow-cells using amine coupling chemistry. One neutravidin surface was left blank as a negative control. Biotinylated peptides (including biotinylated ASARM-PO4 peptide) were then added and captured on other individual flow-cells. […] The experiments were repeated on two different chips and immobilized peptides measured as surface plasmon response units as previously described (Rowe et al., Bone 36:33-46 (2005)). The response unit or RU is a measure of surface charge density oscillation and surface […] generation as detected by changes in incident refractive index monitored by the Biacore optical unit. […]

[1] = system: Murine bone marrow stromal cell (BMSCs) cultures; assay: Bone marrow stromal cell mineralization assay (alizarin red staining); format: cell-based, mice
Procedure: The epiphyses of the bones from wild type (“WT”) and HYP mice were removed, and whole marrow was flushed from the diaphyses by centrifugation at 11500 rpm for 30 seconds in standard culture medium, which consisted of α-MEM (Mediatech Inc, Herndon Va., USA) supplemented with 10% FBS (Mediatech Inc, Herndon Va., USA), 10 U/ml penicillin/100 ug/ml streptomycin. The supernatant was removed, and the cell pellet was resuspended in fresh standard medium. The resuspended cells were plated in standard 25 cm^2 flasks and allowed to grow until confluence. The cells were passaged with 0.25% trypsin and 0.02% EDTA (Sigma Aldrich, Saint Louis, Mo., USA). Cells were plated on 24-well plastic culture plates at a concentration of 10×10^4 cells/well. Starting 72 hours after seeding (referred to as Day 0) nonadherent cells were discarded, and the medium was changed to one that supports osteoblast differentiation, that is, standard media plus 10 mM B glycerophosphate (Sigma Aldrich, Saint Louis, Mo., USA) and 50 mg/liter ascorbic acid (Sigma Aldrich, Saint Louis, Mo., USA). […] For quantification of staining, 500 μL 10% (v/v) acetic acid was added to each well, and the plate was incubated at room temperature for 30 min. with shaking. […] 150 μL aliquots of the supernatant were read in triplicate at 450 nm in 96-well format using opaque-walled, transparent-bottomed plates.

## N=C(N)NCCC[C@H](NC(=O)CCCCCNC(=O)CCCC[C@@H]1SC[C@@H]2NC(=O)N[C@@H]21)C(=O)N[C@@H](CC(=O)O)C(=O)N[C@@H](CC(=O)O)C(=O)N[C@@H](CO)C(=O)N[C@@H](CO)C(=O)N[C@@H](CCC(=O)O)C(=O)N[C@@H](CO)C(=O)N[C@@H](CO)C(=O)N[C@@H](CC(=O)O)C(=O)N[C@@H](CO)C(=O)NCC(=O)N[C@@H](COP(=O)(O)O)C(=O)N[C@@H](CO)C(=O)N[C@@H](COP(=O)(O)O)C(=O)N[C@@H](CCC(=O)O)C(=O)N[C@@H](COP(=O)(O)O)C(=O)N[C@@H](CC(=O)O)C(=O)NCC(=O)N[C@@H](CC(=O)O)C(=O)O [biotinylated-ASARM-PO4] ({Biotin-Ahx}-RDDSSESSDSG[pS]S[pS]E[pS]DGD-OH)
PHEX
  Kd: 0.168 µM

## NH2-LKGDHSGGNGNYTGLDYNIPGYFRSTIPFHGEVDKENVAR-OH (H-LKGDHSGGNGNYTGLDYNIPGYFRSTIPFHGEVDKENVAR-OH; listed as Homo sapiens) [SPR5]
[1]; BMSC cultures supplemented with 10 μM peptide alone
  mineralization (alizarin red): mineralization occurs with great efficiency

## NH2-RDDSSESSDSGS(PO3H2)SS(PO3H2)ES(PO3H2)DGD-OH (H-RDDSSESSDSG[pS]S[pS]E[pS]DGD-OH; listed as Homo sapiens) [ASARM-PO4]
[1]; BMSC cultures supplemented with 5 μM ASARM-PO4 alone
  mineralization (alizarin red): marked and statistically significant inhibition of mineralization
